According to patent publication US20120220455A1, “Azolylmethyloxiranes, Their Use for Controlling Phytopathogenic Fungi and Compositions Comprising Them” (BASF SE, priority 2006, published 2012):

Test system: Alternaria solani
Test: Efficacy against early blight of tomato caused by Alternaria solani (Alteso P1), greenhouse
Format: in vivo
Conditions: Comparative Example 1, potted tomato plants, visual rating after 5 days
Description: The active compounds were prepared separately or jointly as a stock solution comprising 25 mg of active compound which was made up to 10 ml using a mixture of acetone and/or DMSO and the emulsifier Wettol EM 31 (wetting agent having emulsifying and dispersing action based on ethoxylated alkylphenols) in a volume ratio of solvent/emulsifier of 99:1. The mixture was then made up to 100 ml with water. This stock solution was diluted with the solvent/emulsifier/water mixture described to give the concentration of active compounds stated below. Leaves of potted tomato plants were sprayed to runoff point with an aqueous suspension having the active compound concentration stated below. The next day, the leaves were inoculated with an aqueous spore suspension of Alternaria solani in a 2% biomalt solution. The plants were then placed in a water vapor-saturated chamber at temperatures between 20 and 22° C. After 5 days, the disease on the untreated but infected control plants had developed to such an extent that the infection could be determined visually in %. […]

SMILES	Infection in % at 63 ppm for Alteso P1 [%]
COc1ccc(C2(Cn3cncn3)OC2c2ccccc2Cl)cc1 (centres unmarked) [As described in EP-A 0 196 038]	90
COc1ccc([C@@]2(Cn3cncn3)O[C@@H]2c2ccccc2Cl)c(F)c1 (racemic) [Compound 14.10]	5
